Key:
Format in all cases: cell-based
Porphyromonas gingivalis = assay: Biofilm growth assay in BHI, crystal violet; conditions: control = 1
Experimental: (§1) The increase in biofilm formation of the tested bacteria in response to selected compounds (Met-Pro, Phe-Glu) was investigated by setting up biofilm growth assays in a nutritionally rich medium (brain heart infusion broth (BHI), Oxoid), over 48 hours. Late exponential growth phase liquid cultures were prepared by transferring the respective bacterium from blood agar plates to BHI and overnight incubation at 37° C. in an anaerobic atmosphere for A. viscosus, V. parvula, F. nucleatum, P. gingivalis, P. intermedia, T. forsythia, A. naeslundii, and C. sputigena, and in a 5% CO2 environment for S. salivarius, S. sanguinis, S. mitis, A. actinomycetemcomitans, S. mutans, and S. gordonii. Overnight cultures were transferred to BHI and adjusted to a concentration of 1×10^7 CFU/ml by measuring the optical density at 600 nm (OD600) (BioRad SmartSpec 3000). For each strain, 200 μl of the bacterial suspension was added to a 96-well plate containing 20 μl of the respective di-peptides. Final concentrations of the di-peptides were set to 5, 10, 20 and 25 μmol/ml. […] Additionally, for each bacterium tested, a background control, to correct for background staining, was added. This background control contained the bacterium tested and 0.03 weight % chlorhexidine, as an antiseptic. Plates were incubated as previously described. After 48 hrs the supernatant was removed from the wells of the plates. The wells were washed twice with 1×100 μL PBS (phosphate buffered saline), fixed for 20 minutes with 96% vol. ethanol (96% vol. solution in water) and the biofilm retained at the bottom of the wells was stained with 1 weight % crystal violet (1 weight % solution in water). The bound dye was dissolved with 5% vol. acetic acid (5% vol. solution in water). Quantification of the stained biofilm was performed by measuring the absorbance at 630 nm using a Multiskan Ascent microplate reader (Thermo Scientific).
(§2) The experiment was carried out on three different days (thus providing 3 biological replicas) and each day the experiment was carried out in quadruple (thus providing 4 technical replicas) for each combination of bacterium with dipeptide and for each control. For each day and for each combination, the average (mean) of the values obtained (as detailed above) for the four technical replicas was calculated to provide a single value for each combination on each day. The values shown in Tables 7 to 8, below, are the average (mean) of the three single values obtained for each combination of bacterium with dipeptide.

Streptococcus salivarius = assay: Biofilm growth assay in BHI, crystal violet; conditions: control = 1
Experimental: as §1, §2

Streptococcus sanguinis [1] = assay: Biofilm growth assay in BHI, crystal violet; conditions: control = 1
Experimental: as §1, §2

Capnocytophaga sputigena = assay: Biofilm growth assay in BHI, crystal violet; conditions: control = 1
Experimental: as §1, §2

Veillonella parvula = assay: Biofilm growth assay in BHI, crystal violet; conditions: control = 1
Experimental: as §1, §2

Prevotella intermedia [2] = assay: Biofilm growth assay in BHI, crystal violet; conditions: control = 1
Experimental: as §1, §2

Streptococcus mitis = assay: Biofilm growth assay in BHI, crystal violet; conditions: control = 1
Experimental: as §1, §2

Streptococcus gordonii = assay: Biofilm growth assay in BHI, crystal violet; conditions: control = 1
Experimental: as §1, §2

Streptococcus sanguinis [3] = assay: Extent of growth, growth curves in BHI; conditions: control = 1
Experimental: (§3) The extent of growth of the tested bacteria in response to selected compounds (Met-Pro, Phe-Glu) was investigated by setting up growth curves in a nutritionally rich medium (brain heart infusion broth (BHI), Oxoid), over 48 hours. Late exponential growth phase liquid cultures were prepared by transferring the respective bacterium from blood agar plates to BHI and overnight incubation at 37° C. in an anaerobic atmosphere for A. viscosus, V. parvula, F. nucleatum, P. gingivalis, P. intermedia, T. forsythia, A. naeslundii, and C. sputigena, and in a 5% CO2 environment for S. salivarius, S. sanguinis, S. mitis, A. actinomycetemcomitans, S. mutans, S. sobrinus and S. gordonii. Overnight cultures were transferred to BHI and adjusted to a concentration of 1×10^7 CFU/ml (colony forming units per ml) by measuring the optical density at 600 nm (OD600) (BioRad SmartSpec 3000). For each strain, 200 μl of the bacterial suspension was added to a 96-well plate containing 20 μl of the respective di-peptides. Final concentrations of the di-peptides were set to 5, 10, 20 and 25 μmol/ml. […] Plates were incubated as previously described.
(§4) For each combination of bacterium/dipeptide, and for each of their respective controls (i.e. the particular bacterium in the nutritionally rich medium with no dipeptide), the optical density was measured at 630 nm (OD630) at 0 h, 24 h and 48 h (Thermo Scientific Multiskan Ascent). Additionally, the OD630 for combinations of bacterium/dipeptide grown in a 5% CO2 environment were also measured every hour between 0 h and 9 h.
as §2, with “replicas) and on each day” for “replicas) and each day”, “in Tables 5 to 6,” for “in Tables 7 to 8,”, “5 to 6, below, are” for “7 to 8, below, are”

Prevotella intermedia [4] = assay: Extent of growth, growth curves in BHI; conditions: control = 1
Experimental: as §3, §4
as §2, with “replicas) and on each day” for “replicas) and each day”, “in Tables 5 to 6,” for “in Tables 7 to 8,”, “5 to 6, below, are” for “7 to 8, below, are”

[5] = system: beneficial oral bacteria and pathogenic oral bacteria; assay: Biofilm growth, whole panel: prebiotic effect; conditions: threshold value of 1.6
Experimental: Substrates that were able to increase the biofilm mass of at least one of the above beneficial bacteria while not or only minimally increasing the biofilm mass of the pathogenic bacteria are considered to be prebiotic compounds.
as §1, §2
This value was selected in order to exclude low-stimulating metabolites and avoid false positive results.

Phe-Glu
biofilm growth: OD 630 nm (crystal violet) at 48 hrs divided by OD of control (Porphyromonas gingivalis; 5 μmol/ml): 0.7552
biofilm growth: OD 630 nm (crystal violet) at 48 hrs divided by OD of control (Porphyromonas gingivalis; 10 μmol/ml): 0.9004
biofilm growth: OD 630 nm (crystal violet) at 48 hrs divided by OD of control (Porphyromonas gingivalis; 20 μmol/ml): 0.1717
biofilm growth: OD 630 nm (crystal violet) at 48 hrs divided by OD of control (Porphyromonas gingivalis; 25 μmol/ml): 0.3008
biofilm growth: OD 630 nm (crystal violet) at 48 hrs divided by OD of control (Streptococcus salivarius; 5 μmol/ml): 1.4007
biofilm growth: OD 630 nm (crystal violet) at 48 hrs divided by OD of control (Streptococcus salivarius; 10 μmol/ml): 1.0359
biofilm growth: OD 630 nm (crystal violet) at 48 hrs divided by OD of control (Streptococcus salivarius; 20 μmol/ml): 0.8978
biofilm growth: OD 630 nm (crystal violet) at 48 hrs divided by OD of control (Streptococcus salivarius; 25 μmol/ml): 0.7342
biofilm growth: OD 630 nm (crystal violet) at 48 hrs divided by OD of control (Streptococcus sanguinis [1]; 5 μmol/ml): 1.2254
biofilm growth: OD 630 nm (crystal violet) at 48 hrs divided by OD of control (Streptococcus sanguinis [1]; 10 μmol/ml): 1.0551
biofilm growth: OD 630 nm (crystal violet) at 48 hrs divided by OD of control (Streptococcus sanguinis [1]; 20 μmol/ml): 0.5417
biofilm growth: OD 630 nm (crystal violet) at 48 hrs divided by OD of control (Streptococcus sanguinis [1]; 25 μmol/ml): 0.4820
biofilm growth: OD 630 nm (crystal violet) at 48 hrs divided by OD of control (Capnocytophaga sputigena; 5 μmol/ml): 0.1909
biofilm growth: OD 630 nm (crystal violet) at 48 hrs divided by OD of control (Capnocytophaga sputigena; 10 μmol/ml): 0.1079
biofilm growth: OD 630 nm (crystal violet) at 48 hrs divided by OD of control (Capnocytophaga sputigena; 20 μmol/ml): 0.1578
biofilm growth: OD 630 nm (crystal violet) at 48 hrs divided by OD of control (Capnocytophaga sputigena; 25 μmol/ml): 0.2648
biofilm growth: OD 630 nm (crystal violet) at 48 hrs divided by OD of control (Veillonella parvula; 5 μmol/ml): 0.3257
biofilm growth: OD 630 nm (crystal violet) at 48 hrs divided by OD of control (Veillonella parvula; 10 μmol/ml): 0.3136
biofilm growth: OD 630 nm (crystal violet) at 48 hrs divided by OD of control (Veillonella parvula; 20 μmol/ml): 0.1638
biofilm growth: OD 630 nm (crystal violet) at 48 hrs divided by OD of control (Veillonella parvula; 25 μmol/ml): 0.2969
biofilm growth: OD 630 nm (crystal violet) at 48 hrs divided by OD of control (Prevotella intermedia [2]; 5 μmol/ml): 0.7904
biofilm growth: OD 630 nm (crystal violet) at 48 hrs divided by OD of control (Prevotella intermedia [2]; 10 μmol/ml): 0.1852
biofilm growth: OD 630 nm (crystal violet) at 48 hrs divided by OD of control (Prevotella intermedia [2]; 20 μmol/ml): 0.2103
biofilm growth: OD 630 nm (crystal violet) at 48 hrs divided by OD of control (Prevotella intermedia [2]; 25 μmol/ml): 0.2516
biofilm growth: OD 630 nm (crystal violet) at 48 hrs divided by OD of control (Streptococcus mitis; 5 μmol/ml): 0.7237
biofilm growth: OD 630 nm (crystal violet) at 48 hrs divided by OD of control (Streptococcus mitis; 10 μmol/ml): 0.0179
biofilm growth: OD 630 nm (crystal violet) at 48 hrs divided by OD of control (Streptococcus mitis; 20 μmol/ml): 0.0264
biofilm growth: OD 630 nm (crystal violet) at 48 hrs divided by OD of control (Streptococcus mitis; 25 μmol/ml): 0.1018
biofilm growth: OD 630 nm (crystal violet) at 48 hrs divided by OD of control (Streptococcus gordonii; 5 μmol/ml): 1.8315
biofilm growth: OD 630 nm (crystal violet) at 48 hrs divided by OD of control (Streptococcus gordonii; 10 μmol/ml): 1.7019
biofilm growth: OD 630 nm (crystal violet) at 48 hrs divided by OD of control (Streptococcus gordonii; 20 μmol/ml): 0.6462
biofilm growth: OD 630 nm (crystal violet) at 48 hrs divided by OD of control (Streptococcus gordonii; 25 μmol/ml): 0.2237
extent of growth: maximal OD630 over 48 hr divided by maximal OD of control (Streptococcus sanguinis [3]; 5 μmol/ml): 0.8140
extent of growth: maximal OD630 over 48 hr divided by maximal OD of control (Streptococcus sanguinis [3]; 10 μmol/ml): 0.5644
extent of growth: maximal OD630 over 48 hr divided by maximal OD of control (Streptococcus sanguinis [3]; 20 μmol/ml): 0.2451
extent of growth: maximal OD630 over 48 hr divided by maximal OD of control (Streptococcus sanguinis [3]; 25 μmol/ml): 0.2334
extent of growth: maximal OD630 over 48 hr divided by maximal OD of control (Prevotella intermedia [4]; 5 μmol/ml): 1.1149
extent of growth: maximal OD630 over 48 hr divided by maximal OD of control (Prevotella intermedia [4]; 10 μmol/ml): 0.2856
extent of growth: maximal OD630 over 48 hr divided by maximal OD of control (Prevotella intermedia [4]; 20 μmol/ml): 0.2094
extent of growth: maximal OD630 over 48 hr divided by maximal OD of control (Prevotella intermedia [4]; 25 μmol/ml): 0.2224
prebiotic effects (biofilm growth) ([5]; 5 μmol/ml): exhibited prebiotic effects
prebiotic effects (biofilm growth) ([5]; 10 μmol/ml): exhibited prebiotic effects
